Experimental data published in patent US8952021B2, “Compounds for the prevention and treatment of cardiovascular disease” (Resverlogix Corp., priority 2009, dated 2015).

tested on: ApoA-I mRNA; test: Quantification of ApoA-I mRNA in HepG2 cells (real-time PCR); type: cell-based; parameters: key: Active: An active compound was defined as one that caused a ≧20% increase in ApoA-I mRNA at a concentration less than or equal to 100 μM; details: fold induction relative to DMSO control, concentration less than or equal to 100 μM
Protocol: In this example, ApoA-I mRNA in tissue culture cells was quantitated to measure the transcriptional up-regulation of ApoA-I when treated with a compound of the invention.
HepG2 cells (approximately 2×10^5 per well) were placed in a 24-well plate in approximately 400 μL MEM, supplemented with 0.5% (v/v) FBS, 24 h before addition of the compound of interest. At time of harvesting, the spent media was removed from the HepG2 cells and immediately placed on ice (for immediate use) or at −80° C. (for future use) in ApoA-I and albumin ELISAs. The cells remaining in the plate wells were rinsed in 200 μL PBS. PBS was carefully removed to avoid removing any loosely attached cells.
Once the PBS was removed, 85 μL cell lysis solution was added the cells in each well and incubated for 5-10 minutes at room temperature, to allow for complete cell lysis and detachment. mRNA was then prepared using the “mRNA Catcher PLUS plate” from Invitrogen, according to the protocol supplied. After the last wash, as much wash buffer as possible was aspirated without allowing the wells to dry. Elution Buffer (E3, 80 μL) was then added to each well. mRNA was then eluted by incubating the mRNA Catcher PLUS plate with Elution Buffer for 5 minutes at 68° C. and then immediately placing the plate on ice.
The eluted mRNA isolated was then used in a one-step real-time […] reaction, using components of the Ultra Sense Kit together with Applied Biosystems primer-probe mixes. Real-time PCR data was analyzed, using the Ct values, to determine the fold induction of each unknown sample, relative to the control (that is, relative to the control for each independent DMSO concentration).
An active compound was defined as one that caused a ≧20% increase in ApoA-I mRNA at a concentration less than or equal to 100 μM.

SMILES | Effect on ApoA-I mRNA levels
O=c1c2ccccc2nc(-c2ccc(N3CCCCC3)nc2)n1-c1ccc(Cl)cc1 [Example 48, 3-(4-chlorophenyl)-2-(6-(piperidin-1-yl)pyridin-3-yl)quinazolin-4(3H)-one] | Active
Cc1cc(-c2nc3ccccc3c(=O)n2-c2ccc(C(F)(F)F)cc2)cc(C)c1OCCO [Example 11, 2-(4-(2-hydroxyethoxy)-3,5-dimethylphenyl)-3-(4-(trifluoromethyl)phenyl)quinazolin-4(3H)-one] | Active
CCC(C)c1ccc(-n2c(-c3cncc(N(CC)CC)c3)nc3ccccc3c2=O)cc1 (stereo not shown) [Example 59, 3-(4-sec-butylphenyl)-2-(5-(diethylamino)pyridin-3-yl)quinazolin-4(3H)-one] | Active
Cc1ccc(-c2nc3ccccc3c(=O)n2-c2ccc(C3CCCC3)cc2)cn1 [Example 62, 3-(4-cyclopentylphenyl)-2-(6-methylpyridin-3-yl)quinazolin-4(3H)-one] | Active
Cc1ccc(-c2nc3ccccc3c(=O)n2-c2ccc(N(C)C)cc2)cn1 [Example 69, 3-(4-(dimethylamino)phenyl)-2-(6-methylpyridin-3-yl)quinazolin-4(3H)-one] | Active
O=c1c2ccccc2nc(-c2ccc3[nH]ccc3c2)n1-c1ccc(OC(F)(F)F)cc1 [Example 76, 2-(1H-indol-5-yl)-3-(4-(trifluoronnethoxy)phenyl)quinazolin-4(3H)-one] | Active
CCC(C)c1ccc(-n2c(-c3ccc(F)nc3)nc3ccccc3c2=O)cc1 (stereo not shown) [Example 51, 3-(4-sec-butylphenyl)-2-(6-fluoropyridin-3-yl)quinazolin-4(3H)-one] | Active
Cc1cc(-c2nc3ccccc3c(=O)n2-c2ccc(NC(=O)C(C)C)cc2)cc(C)c1OCCO [Example 24, N-(4-(2-(4-(2-hydroxyethoxy)-3,5-dimethylphenyl)-4-oxoquinazolin-3(4H)-yl)phenyl)isobutyramide] | Active
CCN(CC)c1cncc(-c2nc3ccccc3c(=O)n2-c2ccc(Cl)cc2)c1 [Example 61, 3-(4-chlorophenyl)-2-(5-(diethylamino)pyridin-3-yl)quinazolin-4(3H)-one] | Active
Cc1cc(-c2nc3ccccc3c(=O)n2-c2ccc(NS(C)(=O)=O)cc2)cc(C)c1OCCO [Example 29, N-(4-(2-(4-(2-hydroxyethoxy)-3,5-dimethylphenyl)-4-oxoquinazolin-3(4H)-yl)phenyl)methanesulfonamide] | Active
CCC(C)c1ccc(-n2c(-c3ccc4[nH]c(CO)cc4c3)nc3ccccc3c2=O)cc1 (stereo not shown) [Example 82, 3-(4-sec-butylphenyl)-2-(2-(hydroxymethyl)-1H-indol-5-yl)quinazolin-4(3H)-one] | Active
O=c1c2ccccc2nc(-c2ccc(Br)nc2)n1-c1ccc(Cl)cc1 [Example 41, 2-(6-bromopyridin-3-yl)-3-(4-chlorophenyl)quinazolin-4(3H)-one] | Active
O=c1c2ccccc2nc(-c2ccc(Cl)nc2)n1-c1ccc(Cl)cc1 [Example 38, 3-(4-chlorophenyl)-2-(6-chloropyridin-3-yl)quinazolin-4(3H)-one] | Active
O=c1c2ccccc2nc(-c2cccc3[nH]ccc23)n1-c1ccc(Cl)cc1 [Example 89, 3-(4-chlorophenyl)-2-(1H-indol-4-yl)quinazolin-4(3H)-one] | Active
CCC(C)c1ccc(-n2c(-c3ccc(N(CC)CC)nc3)nc3ccccc3c2=O)cc1 (stereo not shown) [Example 44, 3-(4-sec-butylphenyl)-2-(6-(diethylamino)pyridin-3-yl)quinazolin-4(3H)-one] | Active
COc1ccc(S(=O)(=O)n2ccc3cc(-c4nc5ccccc5c(=O)n4-c4ccc(Cl)cc4)cnc32)cc1 [Example 78, 3-(4-chlorophenyl)-2-(1-(4-methoxyphenylsulfonyl)-1H-pyrrolo[2,3-b]pyridin-5-yl)quinazolin-4(3H)-one] | Active
